Results published in publication PMC5343914, “Phytochemical Analysis of Agrimonia pilosa Ledeb, Its Antioxidant Activity and Aldose Reductase Inhibitory Potential” (International Journal of Molecular Sciences, 2017).
Where two headings read alike, the source gives them in different places.

Assays:
[1] = target: T1, rat lens aldose reductase (RLAR) (Rattus norvegicus, UniProt P07943); test: Determination of RLAR inhibition in vitro (NADPH decrease at 340 nm, DL-glyceraldehyde substrate); format: biochemical; set-up: inhibition: dose or concentration left out as unconfirmed; conditions: for IC50: Experiments; for inhibition: Table 2, printed under head DPPH/Experiments;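 for all read-outs here: crude enzyme from Sprague–Dawley rat lens homogenate supernatant, absorbance read over 3 min in pH 6.2 potassium phosphate buffer with 1.6 mM NADPH and 25 mM substrate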
T1 construct: The supernatant was collected and used as the RLAR; from tissue; host or cells: Sprague–Dawley rat lens homogenate, 10,000 x g supernatant
Protocol: Crude RLAR was prepared as follows: lenses weighing 250–280 g were removed from Sprague–Dawley rats and frozen at −70 °C until use. […] Non-cataractous transparent lenses were pooled and a homogenate was prepared in 0.1 M phosphate-buffered saline (pH 6.2). RLAR homogenate was then centrifuged at 10,000× g for 20 min at 4 °C in a refrigerated centrifuge. The supernatant was collected and used as the RLAR. All procedures were carried out at 4 °C [37].
RLAR activity was assayed spectrophotometrically by measuring the decrease in the absorption of NADPH at 340 nm over a 3-min period using DL-glyceraldehyde as the substrate. Each 1.0 mL cuvette contained equal units of the enzyme, 0.10 M potassium phosphate buffer (pH 6.2), 1.6 mM NADPH, 25 mM DL-glyceraldehyde (the substrate), and an inhibitor or dimethyl sulfoxide (DMSO).

[2] = DPPH free radical scavenging capacity
Protocol: The stable free radical was used to determine the free radical-scavenging activity of the extracts. Briefly, a 0.32 mM solution of DPPH in MeOH was prepared, and 180 µL of this solution was mixed with 30 µL of each sample at concentrations of 0.05–1.0 mg/mL in DMSO. After 20 min of incubation in the darkroom, the decrease in the absorbance of the solution was measured at 570 nm on a microplate reader (EL800 Universal Microplate reader, Bio-Tek instruments, Winooski, VT, USA). DPPH inhibitory activity was expressed as the percentage inhibition (%) of DPPH in the aforementioned assay system, and was calculated as [1 − (Asample − Ablank/Acontrol − Ablank)] × 100%, where Acontrol is the absorbance of DPPH solution (180 µL) with methanol (30 µL); Ablank is the absorbance of distilled water (180 µL) with methanol (30 µL); Asample is the absorbance of DPPH solution (180 µL) with sample solution (30 µL).

[3] = Offline DPPH HPLC assay of the n-BuOH fraction (peak area reduction); conditions: n-BuOH fraction 20 mg/mL mixed with […] DPPH, 20 min, HPLC 254 nm
Protocol: The sample was analyzed using an Agilent Technologies modular model 1200 system with a vacuum degasser (G1322A), a quaternary pump (G1311A), an auto-sampler (G1329A), a thermo-statted column compartment (G1316A), and a variable wavelength detector (VWD, G1314D) system. The separation was achieved on an Eclipse XDB-phenyl column (150 mm × 4.6 mm, 3.5 μm) maintained at 30 °C. The elution solvents were 0.1% trifluoroacetic acid (A) and MeOH (B) with the following gradient: 20%–30% B (0–3 min), 30%–40% B (3–10 min), 40%–50% B (10–20 min), 50%–60% B […], 60%–100% B (25–35 min), 100%–100% B (35–38 min), 100%–20% B (38–40 min), and 20%–20% B (40–45 min). Injection volume was 10 µL (sample concentration: 1 mg/mL) and UV wavelength was 254 nm.
The offline DPPH HPLC assay was performed by modifying a previously-described protocol. Thirty microliters (20 mg/mL in MeOH) of the n-BuOH fraction from APE were mixed with 180 μL prepared DPPH solution (0.32 mM). The mixture was incubated in the dark for 20 min, then filtered through a 0.45-μm filter for HPLC analysis. The n-BuOH (20 mg/mL in MeOH) was used as a control. The extent of peak decrease is expressed as a quantitative reduction.

[4] = target: T1, rat lens aldose reductase (RLAR)
[5] = target: T2, recombinant human aldose reductase (RHAR) (Homo sapiens, UniProt P15121); test: Determination of inhibition type of RHAR (Lineweaver-Burk plots); format: biochemical; conditions: DL-glyceraldehyde 1.0 to 25.0 mM
T2 construct: purchased Wako Pure Chemical Industries (Osaka, Japan)
Protocol: Reaction mixtures consisted of 0.1 M potassium phosphate, 1.6 mM NADPH, and 2 mM of RHAR with varied concentrations of substrate DL-glyceraldehyde and AR inhibitor in a total volume of 600 μL. […] RHAR activity was assayed by measuring the decrease in absorption of NADPH after substrate addition at 340 nm using a Bio Tek Power Wave XS spectrophotometer (Bio Tek Instruments, Winooski, VT, USA) [41].

[6] = test system: sorbitol accumulation in rat lenses; test: Lens culture and intracellular sorbitol measurement (ex vivo); conditions: compound 5.0 μg/mL; for Inhibition (%) of sorbitol accumulation in rat lens: isolated rat lens ex vivo; for Sorbitol Content (mg)/Lens Wet Weight (g): isolated rat lens, 30 mM glucose medium, 6 d
Protocol: Lenses isolated from 10-week-old Sprague–Dawley rats using the registration number mentioned in the section of 4.5 were cultured for 6 d in TC-199 medium that contained 15% fetal bovine serum, 100 units/mL penicillin, and 0.1 mg/mL streptomycin, under sterile conditions and an atmosphere of 5% CO2 and 95% air at 37 °C. Samples were dissolved in DMSO. The lenses were divided into three groups and cultured in medium containing 30 mM glucose and RLAR-active compounds. Each lens was placed in a well containing 2.0 mL of medium. Sorbitol was determined by HPLC using the methods mentioned in the section of 4.7 after its derivatization by reaction with benzoic acid to a fluorescent compound [42].

[7] = target: T2, recombinant human aldose reductase (RHAR); conditions: cited from earlier work; for Inhibition type (References): Table 3; for inhibition pattern against RHAR: ref Lee et al., Ha et al., Chethan et al. 31, 32, 33
[8] = literature value; read-out: RLAR IC50 (References); cited from earlier work

SMILES	IC50 [1]	inhibition [1]	IC50 [2]	IC50 [4, 8]	Inhibition (%) of sorbitol accumulation in rat lens [6]	Sorbitol Content (mg)/Lens Wet Weight (g) [6]	other results
C[C@@H]1O[C@@H](OC[C@H]2O[C@@H](Oc3c(-c4ccc(O)c(O)c4)oc4cc(O)cc(O)c4c3=O)[C@H](O)[C@@H](O)[C@@H]2O)[C@H](O)[C@H](O)[C@H]1O [Rutin (RT), rutin]	9.5 ± 0.75 µM	31.7 ± 0.65%	66.8 ± 0.34 µM	–	–	–	peak area reduction (PAR) [3]: lower than 20.0%
Oc1cc(O)c2c(c1)OC(c1ccc(O)c(O)c1)C(O)C2 (stereo not drawn) [Catechin (CT), catechin]	> 30 µM	7.2 ± 1.02%	106.7 ± 0.43 µM	> 30 µM	–	–	–
O=C(O)CC1(CC(=O)O)CCCC1 [TMG, tetramethylene glutaric acid]	0.5 ± 0.05 µM	–	–	1 µM	–	–	Inhibition (%) RLAR ([1]; Table 1, concentration not in table, text b9: crude extract 10.0 μg/mL, EtOAc, n-BuOH fractions and TMG 1.0 μg/mL): 99.7 ± 0.11%
O=c1cc(-c2ccc(O)cc2)oc2c([C@@H]3O[C@H](CO)[C@@H](O)[C@H](O)[C@H]3O)c(O)cc(O)c12 [Vitexin (VT), vitexin]	> 30 µM	12.2 ± 0.95%	> 250 µM	> 30 µM	–	–	DPPH free radical scavenging activity (in words) [2]: no DPPH free radical scavenging activity
O=C1O[C@H]([C@@H](O)CO)C(O)=C1O [L-Ascorbic acid, L-ascorbic acid]	–	–	147.3 ± 0.43 µM	–	–	–	Inhibition (%) DPPH ([2]; Table 1, concentration not in table, text b9: crude extract 7.1 μg/mL): 81.0 ± 0.01%
C[C@@H]1O[C@@H](Oc2c(-c3ccc(O)c(O)c3)oc3cc(O)cc(O)c3c2=O)[C@H](O)[C@H](O)[C@H]1O [Quercitrin (QU), quercitrin]	0.2 ± 0.02 µM	–	77.9 ± 0.27 µM	–	76.9 ± 5.32%	0.34 ± 0.02 mg/g	inhibition at 10 µg/mL [1]: 97.4 ± 1.38%; RLAR potency relative to positive control TMG (times higher) ([1]; IC50 0.2 μM vs TMG 0.5 μM): 2.5 times; Inhibition type (References) [7]: Uncompetitive [29]; inhibition pattern against RHAR [7]: uncompetitive
O=C(OC1OC2COC(=O)c3cc(O)c(O)c(O)c3-c3c(cc(O)c(O)c3O)C(=O)OC2C2OC(=O)c3cc(O)c(O)c(O)c3-c3c(cc(O)c(O)c3O)C(=O)OC12)c1cc(O)c(O)c(Oc2c(C(=O)OC3OC4COC(=O)c5cc(O)c(O)c(O)c5-c5c(cc(O)c(O)c5O)C(=O)OC4C4OC(=O)c5cc(O)c(O)c(O)c5-c5c(cc(O)c(O)c5O)C(=O)OC34)cc(O)c(O)c2O)c1 (stereo not drawn) [Agrimoniin (AM), agrimoniin]	1.6 ± 0.12 µM	–	13 ± 0.06 µM	–	47.6 ± 1.34%	0.77 ± 0.02 mg/g	Inhibition type [5]: Noncompetitive
O=c1c(O[C@@H]2O[C@H](CO)[C@@H](O)[C@H](O)[C@H]2O)c(-c2ccc(O)c(O)c2)oc2cc(O)cc(O)c12 [Isoquercitrin (IQC), Isoquercitrin]	5.1 ± 0.88 µM	41 ± 1.07%	65.9 ± 0.46 µM	4.5 µM	–	–	–
O=c1c(O[C@@H]2O[C@H](CO)[C@H](O)[C@H](O)[C@H]2O)c(-c2ccc(O)c(O)c2)oc2cc(O)cc(O)c12 [Hyperin (HP), hyperin]	4.1 ± 0.32 µM	90.8 ± 0.96%	73.3 ± 0.23 µM	3 µM	–	–	–
O=c1c(O)c(-c2ccc(O)c(O)c2)oc2cc(O)cc(O)c12 [Quercetin (QC), quercetin]	–	–	70.4 ± 0.15 µM	–	85.7 ± 8.32%	0.21 ± 0.02 mg/g	inhibition at 10 µg/mL [1]: 74.1 ± 0.85%; Inhibition type (References) [7]: Noncompetitive [31]; inhibition pattern against RHAR [7]: noncompetitive
O=c1cc(-c2ccc(O)cc2)oc2cc(O)cc(O)c12 [Apigenin (AG), apigenin]	3.2 ± 0.21 µM	81.8 ± 1.2%	156.3 ± 1.21 µM	–	–	–	IC50 ([4]; read-out: RLAR IC50 (References); literature value; cited from earlier work): 2.2 µM
O=c1cc(-c2ccc(O)c(O)c2)oc2cc(O)cc(O)c12 [Luteolin (LT), luteolin]	–	80.2 ± 0.9%	88.2 ± 0.52 µM	–	91.8 ± 7.91%	0.12 ± 0.01 mg/g	Inhibition type (References) [7]: Mixed type [30]; inhibition pattern against RHAR [7]: mixed-type

Second part, led by results:

IC50 [1]	inhibition [1]	IC50 [2]	SMILES	IC50 [4, 8]	Inhibition (%) of sorbitol accumulation in rat lens [6]	Sorbitol Content (mg)/Lens Wet Weight (g) [6]	other results
8.1 ± 0.72 µM	46.9 ± 0.95%	71.5 ± 0.29 µM	O=c1cc(-c2ccc(O)c(O)c2)oc2cc(O[C@@H]3O[C@H](CO)[C@@H](O)[C@H](O)[C@H]3O)cc(O)c12 [Luteolin-7-O-glucoside (LGC), luteolin-7-O-glucoside]	7.5 µM	–	–	peak area reduction (PAR) [3]: lower than 20.0%
5.1 ± 0.89 µM	53.3 ± 1.14%	> 250 µM	O=c1c(O[C@@H]2O[C@H](CO)[C@@H](O)[C@H](O)[C@H]2O)c(-c2ccc(O)cc2)oc2cc(O)cc(O)c12 [Astragalin (AS), astragalin]	> 30 µM	–	–	DPPH free radical scavenging activity (in words) [2]: no DPPH free radical scavenging activity
0.7 ± 0.54 µM	83.3 ± 0.88%	80.6 ± 0.38 µM	O=C(O)[C@H]1O[C@@H](Oc2cc(O)c3c(=O)cc(-c4ccc(O)c(O)c4)oc3c2)[C@H](O)[C@@H](O)[C@@H]1O [Luteolin-7-O-glucuronide (LGN), luteolin-7-O-glucuronide]	3.1 µM	91.8 ± 9.01%	0.12 ± 0.01 mg/g	peak area reduction (PAR) [3]: lower than 20.0%; Inhibition type [5]: Noncompetitive
–	–	> 250 µM	C[C@@H]1O[C@@H](Oc2c(-c3ccc(O)cc3)oc3cc(O)cc(O)c3c2=O)[C@H](O)[C@H](O)[C@H]1O [Afzelin (AZ), afzelin]	–	93.2 ± 8.67%	0.10 ± 0.01 mg/g	DPPH free radical scavenging activity (in words) [2]: no DPPH free radical scavenging activity
15.2 ± 1.32 µM	11.8 ± 0.81%	91.6 ± 0.68 µM	O=c1c(O)c(-c2ccc(O)cc2)oc2cc(O)cc(O)c12 [Kaempferol (KP), kaempferol]	10 µM	–	–	–
> 30 µM	< 0%	> 250 µM	O=C(O)[C@H]1O[C@@H](Oc2cc(O)c3c(=O)cc(-c4ccc(O)cc4)oc3c2)[C@H](O)[C@@H](O)[C@@H]1O [Apigenin-7-O-glucuronide (AGN), apigenin-7-O-glucuronide]	–	–	–	RLAR inhibitory activity (in words) [1]: inactive; DPPH free radical scavenging activity (in words) [2]: almost no DPPH free radical scavenging activity; peak area reduction (PAR) [3]: lower than 20.0%
4.3 ± 0.14 µM	40.2 ± 0.56%	> 250 µM	O=c1cc(-c2ccc(O)cc2)oc2cc(O[C@@H]3O[C@H](CO)[C@@H](O)[C@H](O)[C@H]3O)cc(O)c12 [Apigenin-7-O-glucoside (AGC), apigenin-7-O-glucoside]	23 µM	–	–	DPPH free radical scavenging activity (in words) [2]: almost no DPPH free radical scavenging activity; peak area reduction (PAR) [3]: lower than 20.0%
